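Step 1: Grow cells in 96-well plates. Step 2: Expose to compound for 48 hours at 5 concentrations. Step 3: Interpolate endpoints linearly; if unreached, use highest concentration. GI50: concentration for 50% inhibition of growth. TGI: concentration producing complete growth inhibition.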
Key:
Test in all cases: growth of human tumour cells (NCI), 48 h
[1] = system: HL-60(TB) leukemia
[2] = system: CCRF-CEM leukemia
[3] = system: OVCAR-3 ovarian
[4] = system: CAKI-1 renal
[5] = system: HOP-62 NSCLC
[6] = system: MCF7 breast
[7] = system: SR leukemia
[8] = system: SK-MEL-5 melanoma
[9] = system: IGROV1 ovarian
[10] = system: SN12C renal

| Structure (SMILES) | GI50 [1] [µM] | TGI [1] [µM] | GI50 [2] [µM] | TGI [2] [µM] | GI50 [3] [µM] | TGI [3] [µM] | GI50 [4] [µM] | TGI [4] [µM] | GI50 [5] [µM] | TGI [5] [µM] | GI50 [6] [µM] | GI50 [7] [µM] | TGI [7] [µM] | GI50 [8] [µM] | TGI [8] [µM] | GI50 [9] [µM] | TGI [9] [µM] | GI50 [10] [µM] | TGI [10] [µM] | TGI [6] [µM] |
| --- | --- | --- | --- | --- | --- | --- | --- | --- | --- | --- | --- | --- | --- | --- | --- | --- | --- | --- | --- | --- |
| O=C(NC(=S)Nc1ccc(Cl)cc1)c1ccccc1 | > 100 | > 100 | > 100 | > 100 | > 70.6 | > 100 | > 79.7 | > 100 | > 61.7 | > 100 | 2.85 | > 100 | > 100 | > 100 | > 100 | > 87.7 | > 100 | > 100 | > 100 |  |
| C=C1C(=O)O[C@H]2[C@H]1CC/C(Cn1cc(-c3ccccc3)nn1)=C\CC[C@@]1(C)O[C@@H]21 | 1.49 | 5.64 | 0.992 | 4.95 | 1.4 | 4.38 | 1.28 | 4.83 | 7.41 | 15.1 | 1.08 | 1.06 | 6.44 | 7.32 | 13.9 | 6.95 | 14.9 | 4.5 | 11.5 | 3.32 |
| Cc1cc2c(F)c(Oc3ncnn4cc(OC[C@@H](C)OC(=O)[C@H](C)N)c(C)c34)ccc2[nH]1 | 7.2 | 26.3 | 5.96 | 23.1 | 10.7 | 23.7 | 7.21 | 21.5 | 10.3 | 26.9 | 8.58 | 2.99 | 16 | 3.26 | 15.1 | 9.1 | 23.4 | 12.6 | 26.2 | 24 |
| C=C1C(=O)OC2CC3(CO3)C3C(O)C(O)CC3(C)CC12 (centres undefined) |  | 44.6 |  | 45.9 |  | 55.6 |  | 36.6 |  | > 100 |  |  | 87.4 |  | 42 |  | > 100 |  | 68.1 | 62.1 |
| CCOC(CN=c1nc(N(C)C)ss1)OCC |  | 12 |  | 4.33 |  | > 46.4 |  | 41.3 |  | > 100 |  |  | 12.2 |  | > 100 |  | > 100 |  | 36.8 | > 65.3 |
| Cn1c(=O)c2[nH]c(CS(=O)(=O)Cc3nc4c([nH]3)c(=O)n(C)c(=O)n4C)nc2n(C)c1=O |  | > 100 |  | > 100 |  | > 100 |  | > 100 |  | > 100 |  |  | > 100 |  | > 100 |  | > 100 |  | > 100 | > 100 |
| Cc1[nH]c(/C=C2\C(=O)Nc3ccc(F)cc32)c(C)c1C(=O)NC[C@H](O)CN1CCOCC1 | 1.03 | 5.43 | 0.0624 | > 10 | > 10 | > 10 | 1.66 | > 10 | 4.41 | > 10 | 3.11 | 3.41 | > 10 | 4.04 | > 10 | 2.73 | > 10 | 3.05 | > 10 | > 10 |
| O=C1OC(=O)C2C1C1(c3ccccc3)C(c3ccccc3)=C(c3ccccc3)C2(c2ccccc2)S1=O (centres undefined) | > 100 | > 100 | > 100 | > 100 | > 100 | > 100 | > 100 | > 100 | > 100 | > 100 | > 100 | 49.3 | > 100 | > 100 | > 100 | > 100 | > 100 | > 100 | > 100 | > 100 |
| O=C1CCC2(C=C(Br)C(=O)C(Br)=C2)O1 | 1.4 | 6.18 | 1.97 | 6.25 | 1.65 | 3.02 | 0.611 | 1.91 | 20.8 | 39.8 | 3.57 | 2.59 | 9.69 | 16.4 | 30 | 6.59 | 15.6 | 16.3 | 35.3 | 15.7 |
| CCN(CC)CCCCCCCNc1c2ccc(Cl)cc2nc2ccc(OC)cc12 | 1.71 | 3.62 | 0.619 | 3.89 | 1.55 | 3.69 | 1.55 | 4.65 | 0.943 | 2.54 | 0.356 | 0.238 | 0.634 | 1.68 | 3.09 | 0.498 | 1.65 | 1.22 | 5.36 | 1.59 |
| COc1cc(/C=C/C(=O)c2ccc(Cl)cc2)ccc1OS(=O)(=O)c1ccc(C)cc1 | 3.29 | 14.8 | 2.46 | 7.19 | 3.57 | 12.6 | 11.1 | 44.4 | 30 | 92 | 2.56 | 1.9 | 6.56 | 12.4 | 25.1 | 14.5 | 41.7 | 10 | 34.8 | 25.6 |
| CCN(CC)CCOc1ccc(/C=C2\CC3C4CC=C5C[C@@H](N6CCCC6)CC[C@]5(C)C4CC[C@]3(C)[C@H]2O)cc1OC (some centres undefined) | 13.8 | 35.2 | 1.14 | 4.77 | 5.06 | 13.6 | 16.3 | 46.1 | 5.82 | 15.3 | 4.45 | 0.224 | 0.648 | 0.336 | 1.95 | 8.91 | > 27.6 | 20.6 | > 63.5 | > 59 |
| CN(C)c1ccc2c3c(c(=O)oc2c1)CCC3 |  | > 100 |  | > 100 |  | > 100 |  | > 100 |  | > 100 |  |  | > 100 |  | > 100 |  | > 100 |  | > 100 | > 100 |
| C[C@]12CC[C@@H]3c4ccc(O)cc4CC[C@H]3[C@@H]1CC[C@@H]2NS(=O)(=O)Cc1ccc(Cl)cc1 | 3.26 | 14.5 | 2.63 | > 100 | 1.91 | 3.83 | 3.06 | 11.2 | 2.97 | 8.14 | 2.92 | 3.69 | > 100 | 1.77 | 3.45 | 2.99 | 10.4 | 1.7 | 3.36 | 9.62 |

— PubChem BioAssay (NCI)
